Measurements as given in patent publication US8822519B2, “Compound with agitation effect on peroxisome proliferator-activated receptor process for its preparation and use thereof” (Zhejiang Hisun Pharmaceutical Co., Ltd., priority 2008, dated 2014).

Key:
[1] = Tissue distribution; type: in vivo, SD rats; settings: distribution in organs, SD rats, 10 mg/kg
Procedure: 18 of SD rats were fasting for 16 h with free access for water, assigned them into 3 groups with 6 animals/group with a female-to-male ratio of 1:1; they were dosed with HS060098 (10 mg/kg), then the animals were sacrificed at 1, 10, and 24 h after dosing, and the heart, liver, spleen, lung, kidney in each animal were removed rapidly. The tainted blood on the surface of the organ was washed off immediately with physiological saline. The tissue from the organ was dissected apart, washed thoroughly, blotted off, weighed, supplemented with physiological saline at 400 mg/ml, homogenized in an ice bath for 1 min, and centrifuged at 3750 rpm for 20 min. 400 μl of the supernatant was pipetted precisely, followed by addition of 40 μl of an inner standard (HS060001 used as the inner standard with a molar concentration of 5 mmol/L), diluted with 3 ml of purified water, vortexed to homogeneity, and loaded onto a column (SPE C18 column was firstly washed with 3 ml of purified water, and sequentially with 3 ml of 10% methanol for activation). The column was rinsed with 3 ml of purified water at 1 ml/min, and then eluted with 3 ml of a elutant (methanol: purified water=9:1). The eluate was collected and blow-dried under a nitrogen flow at 45° C. The residue was dissolved in 400 μl of acetonitrile and then a HPLC insert was placed and followed by injection of the sample.

[2] = system: high fat fodder obese C57BL/6J mice; test: High fat fodder obese mice: body weight and food intake; type: in vivo
Description: (§1) 3 week-old male C57BL/6J mice were chosen as experiment animals, 15 of which were randomly selected to feed with a standard fodder, and the remains were allowed to feed with a high fat fodder, with each of the mice being marked by ear-cutting. The body weights and fodder intake of the mice were weighed every week. […] After the administration of the inventive compounds for four weeks, the effects of the medicaments on the levels of blood lipid and blood glucose, body weight, and fodder intake in the animals were observed, while a glucose tolerance test was performed to investigate the effects of the medicaments on the glucose tolerance in the animals.

[3] = system: Macaca rhesus model of hyperlipidemia; test: Macaca rhesus model of hyperlipidemia, hematological indicators and ELISA; type: in vivo; settings: three months of administration
Description: Afterwards, efficacy of the medicament of the A-3 was confirmed in the Macaca rhesus model of hyperlipidemia. After three months of administration, blood samples were taken from the femoral vein for the determination of hematological indicators, and the determination of the insulin, apolipoprotein A-1 (apoA-1) and apolipoprotein B-100 (apoB-100) by ELISA.

[4] = system: high fat fodder obese C57BL/6J mice; test: Oral glucose tolerance test in obese mice; type: in vivo; settings: FIG. 2, in words
Procedure: The abscissa represents blood-sampling time points, 0 min, 30 min, 60 min, 120 min after orally given with glucose; the ordinate represents the corresponding blood glucose level (mmol/L).
as §1

[5] = system: high fat fodder obese C57BL/6J mice; test: High fat fodder obese mice: levels of blood lipid and blood glucose; type: in vivo; design: HDL / GLU / TC / TG: unit not given here; settings: for GLU / HDL / TC / TG: mean ± s, n 5
Description: as §1, with “[…],” for “After the administration of the inventive compounds for four weeks,”

[6] = Pharmacokinetics: plasma concentration-time curve; type: in vivo; settings: SD rats, gastric lavage, 50, 10 and 2 mg/kg
Procedure: The dosing volume was 10 ml/kg, and blood samples of 0.4-0.5 ml were taken from the vena orbitalis posterior of the waken animals at different time points post-gastric lavage and centrifuged at 5000 rpm for 10 min. 200 μL of plasma sample was precisely measured, then supplemented with 200 μL acetonitrile, vortexed to evenness, left stand for 5 min, and centrifuged (14000 rpm, 5 min). The supernatant was collected and then centrifuged again (14000 rpm, 5 min). The resulting supernatant was gathered and subjected to HPLC injection. Time points for blood sampling were respectively: 0, 0.5, 1, 2, 4, 6, 8, 10, 12, 24, 36, 48 and 72 h, and the peak area for each time point was the average of those obtained from 6 rats at the same time point. Plasma concentrations were calculated and the medicament concentration-time curve was plotted.

[7] = vs hyperlipidemia model control group
[8] = 2 weeks administration, 3.3 mg/kg
[9] = 2 weeks administration, 10 mg/kg
[10] = 4 weeks administration, 3.3 mg/kg
[11] = 4 weeks administration, 10 mg/kg

Work on “2-(3-methyl-4-(1-(3-(4-methyl-5-oxo-1-(4-trifluoromethyl-phenyl)-4,5-dihydrogen-1H-1,2,4-triazolyl))-benzyloxy)-phenylthio)-acetic acid [Compound A-3]” yielded a Heart [1] of 26%, a Kidney [1] of 9% and a Liver [1] of 36%. For the same substance, the Lung [1] was 16%, the Spleen [1] was 13% and the Food intake ([2]; column 1, 3.3 mg/kg) was 5.22 g. The Food intake ([2]; column 1, 10 mg/kg) was 5.46 g, the Food intake ([2]; column 2, 3.3 mg/kg) was 5.04 g and the Food intake ([2]; column 2, 10 mg/kg) was 4.84 g. It also gave a Food intake ([2]; column 3, 3.3 mg/kg) of 6.06 g, a Food intake ([2]; column 3, 10 mg/kg) of 4.94 g and a Food intake ([2]; column 4, 3.3 mg/kg) of 5.1 g. The Food intake ([2]; column 4, 10 mg/kg) was 5.28 g, the Food intake ([2]; column 5, 3.3 mg/kg) was 6.275 g and the Food intake ([2]; column 5, 10 mg/kg) was 6.9 g. The “effect on the food intake of the animals” value ([2]; in words) was “no significant effect”, the “body weight of the animals” value ([2]; in words, Table 4 and FIG. 1) was “significantly decrease” and the “concentration of apoA-1” value ([3]; ELISA, in words) was “significantly increased”. The “concentration of apoB-100” value ([3]; ELISA, in words) was “significantly decreased”, the insulin concentration ([3]; ELISA, in words) was “significantly decreased” and the “high density lipoprotein (HDLc) increased” value [3, 7] was 67%. For the same substance, the “low density lipoprotein (LDLc) decreased” value [3, 7] was 38%, the “serum total cholesterol (TC) decreased” value [3, 7] was 45% and the “glucose tolerance in the obese animals” value [4] was “significantly improve the glucose tolerance”. It also gave a GLU [5, 8] of 9.52 ± 1.71, an HDL [5, 8] of 3.31 ± 0.21 and a TC [5, 8] of 3.25 ± 2.76. The TG [5, 8] was 0.19 ± 0.12, the GLU [5, 9] was 6.54 ± 1.04 and the HDL [5, 9] was 2.94 ± 1.42. It also gave a TC [5, 9] of 5.12 ± 0.65, a TG [5, 9] of 0.18 ± 0.02 and a GLU [5, 10] of 9.54 ± 0.71. It also gave an HDL [5, 10] of 3.1 ± 0.59, a TC [5, 10] of 5.11 ± 0.31 and a TG [5, 10] of 0.07 ± 0.01. The GLU [5, 11] was 6.6 ± 1.15, the HDL [5, 11] was 2.89 ± 0.28 and the TC [5, 11] was 4.75 ± 0.57. For the same substance, the TG [5, 11] was 0.11 ± 0.07, the “levels of TG and GLU in the sera from the model animals” value ([5]; in words) was “significantly decrease” and the bioavailability [6] was 86%.
